The values that follow come from patent US8901118B2, “Compounds and methods for kinase modulation, and indications therefor” (Plexxikon Inc., priority 2010, dated 2014).

Assay [1] concerns the target c-Kit kinase (Homo sapiens, UniProt P10721). Kind of assay: c-Kit kinase biochemical activity assay (AlphaScreen, biotin-(E4Y)10 phosphorylation). Particulars: 100 μM ATP; read-out: Biochemical Inhibition IC50 Kit. Put shortly:
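Phosphorylation of 30 nM biotin-(E4Y)10 by c-Kit (0.75 ng per reaction) with 100 µM ATP in HEPES pH 7.5 buffer with Mg2+/Mn2+, 5% DMSO, 1 h at room temperature; 8-point 1:2 compound dilutions. AlphaScreen detection with streptavidin donor and PY20 acceptor beads after EDTA stop. IC50 from signal versus concentration.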
On the technique in general: Alpha assays give light when donor and acceptor beads are brought close together.

Assay [2] concerns the target T1, BCR-FMS BaF3 cells (Homo sapiens, UniProt P07333).
T1 construct: fused on or other part: P11274 (Breakpoint cluster region protein)
T1 sequence (P07333 582-910): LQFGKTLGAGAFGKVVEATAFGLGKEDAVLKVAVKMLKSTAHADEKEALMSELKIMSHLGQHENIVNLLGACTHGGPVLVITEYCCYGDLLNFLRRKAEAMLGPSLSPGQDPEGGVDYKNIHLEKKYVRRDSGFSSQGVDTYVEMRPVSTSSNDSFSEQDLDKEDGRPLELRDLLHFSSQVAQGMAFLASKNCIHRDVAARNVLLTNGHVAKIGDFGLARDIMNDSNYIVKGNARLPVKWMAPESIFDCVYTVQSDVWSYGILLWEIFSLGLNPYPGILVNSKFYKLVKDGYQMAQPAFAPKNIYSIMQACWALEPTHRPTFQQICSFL
The assay can be described thus: BaF3 BCR-FMS cell proliferation assay (ATPlite). The class given is cell-based. To be noted: read-out: Inhibition of Cell Proliferation IC50, BCR/BaF3 Fms. Put shortly:
(§1)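 Growth inhibition over 3 days at 37 °C; IC50 from ATPlite luminescence, 8 concentrations (1:3 steps, max 10 μM). BaF3 fusion lines were tested without IL-3.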

Assay [3] addresses T2, BCR-NTRK2 BaF3 cells (Homo sapiens, UniProt Q16620).
T2 construct: fused on or other part: P11274 (Breakpoint cluster region protein)
Kind of assay: BaF3 BCR-NTRK2 cell proliferation assay (ATPlite). Type of assay: cell-based. Particulars: read-out: Inhibition of Cell Proliferation IC50, BCR/BaF3 TrkB. The gist of the method:
as §1
(Cellular ATP, detected with luciferase, serves as a proxy for viable cell number.)

c-Kit kinase, sequence (P10721 26-976): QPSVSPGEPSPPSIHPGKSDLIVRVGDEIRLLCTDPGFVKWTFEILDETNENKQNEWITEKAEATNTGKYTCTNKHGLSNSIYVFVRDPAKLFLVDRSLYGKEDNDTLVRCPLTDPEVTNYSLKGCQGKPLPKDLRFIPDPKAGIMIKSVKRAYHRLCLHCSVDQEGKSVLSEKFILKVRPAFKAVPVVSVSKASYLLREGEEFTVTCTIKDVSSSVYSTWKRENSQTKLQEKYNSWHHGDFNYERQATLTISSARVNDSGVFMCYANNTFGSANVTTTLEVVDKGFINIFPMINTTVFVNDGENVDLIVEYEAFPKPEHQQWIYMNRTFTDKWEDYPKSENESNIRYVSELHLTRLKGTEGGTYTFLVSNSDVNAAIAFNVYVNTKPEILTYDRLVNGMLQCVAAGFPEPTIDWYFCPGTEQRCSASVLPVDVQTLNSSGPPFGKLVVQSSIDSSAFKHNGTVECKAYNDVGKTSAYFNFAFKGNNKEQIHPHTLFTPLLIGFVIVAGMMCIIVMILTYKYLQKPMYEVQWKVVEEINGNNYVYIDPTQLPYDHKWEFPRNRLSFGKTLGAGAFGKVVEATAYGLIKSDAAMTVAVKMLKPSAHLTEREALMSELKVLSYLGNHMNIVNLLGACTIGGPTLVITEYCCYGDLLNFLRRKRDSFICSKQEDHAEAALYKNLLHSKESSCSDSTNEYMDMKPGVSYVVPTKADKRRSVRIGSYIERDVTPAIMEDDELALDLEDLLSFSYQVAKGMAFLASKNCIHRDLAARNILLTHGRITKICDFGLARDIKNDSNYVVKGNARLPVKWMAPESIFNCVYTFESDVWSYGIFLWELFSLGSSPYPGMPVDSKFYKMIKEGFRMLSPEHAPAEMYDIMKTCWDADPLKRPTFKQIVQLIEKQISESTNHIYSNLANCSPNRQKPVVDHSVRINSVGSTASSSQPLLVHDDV
T2 sequence (Q16620 538-807): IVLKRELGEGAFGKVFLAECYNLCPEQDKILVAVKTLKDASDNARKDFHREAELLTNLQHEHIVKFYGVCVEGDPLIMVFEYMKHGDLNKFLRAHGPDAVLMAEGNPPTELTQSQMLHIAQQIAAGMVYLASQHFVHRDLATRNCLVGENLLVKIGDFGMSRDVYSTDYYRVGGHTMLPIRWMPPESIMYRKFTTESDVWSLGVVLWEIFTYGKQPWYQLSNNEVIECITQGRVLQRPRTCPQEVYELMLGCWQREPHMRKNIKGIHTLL

On to `Clc1cnc2[nH]cc(Cc3cnc(NC4CCCCC4)nc3)c2c1` [Compound P-3001, [5-(5-chloro-1H-pyrrolo[2,3-b]pyridin-3-ylmethyl)-pyrimidin-2-yl]-cyclohexyl-amine], for which the IC50 in assay [1] was below 1 µM; in assay [2] it was below 0.1 µM; in assay [3] it was above 10 µM.
In the case of `Clc1cnc2[nH]cc(Cc3cnc(NC4CCCC4)nc3)c2c1` [Compound P-3003, [5-(5-Chloro-1H-pyrrolo[2,3-b]pyridin-3-ylmethyl)-pyrimidin-2-yl]-cyclopentyl-amine], the IC50 in assay [1] is above 1 µM; in assay [2] it was below 1 µM.
As to `FC1(F)CCC(Nc2ncc(Cc3c[nH]c4ncc(Cl)cc34)cn2)CC1` [Compound P-3004], the IC50 in assay [1] was below 1 µM; in assay [2], below 0.1 µM; in assay [3] it was below 10 µM.
For `Clc1cnc2[nH]cc(Cc3cnc(NC4CC4)nc3)c2c1` [Compound P-3005, [5-(5-Chloro-1H-pyrrolo[2,3-b]pyridin-3-ylmethyl)-pyrimidin-2-yl]-cyclopropyl-amine], the IC50 in assay [1] is above 1 µM; in assay [2] it was below 1 µM; in assay [3], above 10 µM.
In the same order, the values of `Clc1cnc2[nH]cc(Cc3cnc(NC4CCCCCC4)nc3)c2c1` [Compound P-3006, [5-(5-Chloro-1H-pyrrolo[2,3-b]pyridin-3-ylmethyl)-pyrimidin-2-yl]-cycloheptyl-amine] are below 1 µM, below 1 µM and above 10 µM.
In the same order, the values of `COc1ccccc1Nc1ncc(Cc2c[nH]c3ncc(Cl)cc23)cn1` [Compound P-3016, [5-(5-Chloro-1H-pyrrolo[2,3-b]pyridin-3-ylmethyl)-pyrimidin-2-yl]-(2-methoxy-phenyl)-amine] are below 0.1 µM, below 1 µM and above 10 µM.
In the same order, the values of `Fc1cccc(Nc2ncc(Cc3c[nH]c4ncc(Cl)cc34)cn2)c1` [Compound P-3017, [5-(5-Chloro-1H-pyrrolo[2,3-b]pyridin-3-ylmethyl)-pyrimidin-2-yl]-(3-fluoro-phenyl)-amine] are below 1 µM, below 1 µM and above 10 µM.
Take `Cc1cnc2[nH]cc(Cc3cnc(Nc4ccc(C(F)(F)F)nc4)nc3)c2c1` [Compound P-3018, [5-(5-Methyl-1H-pyrrolo[2,3-b]pyridin-3-ylmethyl)-pyrimidin-2-yl]-(6-trifluoromethyl-pyridin-3-yl)-amine]: the IC50 in assay [1] is below 0.01 µM; in assay [2], below 0.1 µM; in assay [3], below 0.1 µM.
Consider `COc1ccc(Nc2ccc(Cc3c[nH]c4ncc(C)cc34)c(F)n2)cn1` [Compound P-3019, [6-fluoro-5-(5-methyl-1H-pyrrolo[2,3-b]pyridin-3-ylmethyl)-pyridin-2-yl]-(6-methoxy-pyridin-3-yl)-amine], for which the values for the IC50 in assay [1], in assay [2] and in assay [3] were below 1 µM, below 0.01 µM and below 0.1 µM, respectively.
In the same order, the values of `COc1ccc(Nc2ncc(Cc3c[nH]c4ncc(C)cc34)cn2)cn1` [Compound P-3020, (6-Methoxy-pyridin-3-yl)-[5-(5-methyl-1H-pyrrolo[2,3-b]pyridin-3-ylmethyl)-pyrimidin-2-yl]-amine] are below 0.01 µM, below 0.01 µM and below 0.1 µM.
In the same order, the values of `COc1ccc(Nc2ncc(Cc3c[nH]c4ncc(C)cc34)cn2)cc1` [Compound P-3021, (4-Methoxy-phenyl)-[5-(5-methyl-1H-pyrrolo[2,3-b]pyridin-3-ylmethyl)-pyrimidin-2-yl]-amine] are below 0.01 µM, below 0.01 µM and below 0.1 µM.
In the same order, the values of `COc1cc(Nc2ncc(Cc3c[nH]c4ncc(C)cc34)cn2)ccc1F` [Compound P-3022, (4-Fluoro-3-methoxy-phenyl)-[5-(5-methyl-1H-pyrrolo[2,3-b]pyridin-3-ylmethyl)-pyrimidin-2-yl]-amine] are below 0.1 µM, below 0.1 µM and below 1 µM.
`COc1ccc(Nc2ncc(Cc3c[nH]c4ncc(C)cc34)cn2)cc1F` [Compound P-3023, (3-Fluoro-4-methoxy-phenyl)-[5-(5-methyl-1H-pyrrolo[2,3-b]pyridin-3-ylmethyl)-pyrimidin-2-yl]-amine]: the results for the IC50 in assay [1], in assay [2] and in assay [3] were below 0.1 µM, below 0.1 µM and below 1 µM, respectively.
Turning to `CCCOc1ccc(Nc2ncc(Cc3c[nH]c4ncc(C)cc34)cn2)cc1` [Compound P-3024, [5-(5-Methyl-1H-pyrrolo[2,3-b]pyridin-3-ylmethyl)-pyrimidin-2-yl]-(4-propoxy-phenyl)-amine], the IC50 in assay [1] was below 0.01 µM; in assay [2] it was below 0.01 µM; in assay [3], below 1 µM.
For `CCc1ccc(Nc2ncc(Cc3c[nH]c4ncc(C)cc34)cn2)cc1` [Compound P-3025, (4-Ethyl-phenyl)-[5-(5-methyl-1H-pyrrolo[2,3-b]pyridin-3-ylmethyl)-pyrimidin-2-yl]-amine], the IC50 in assay [1], in assay [2] and in assay [3] was below 0.01 µM each time.
For the compound `CCc1ccc(Nc2ccc(Cc3c[nH]c4ncc(C)cc34)c(F)n2)cn1` [Compound P-3048, (6-Ethyl-pyridin-3-yl)-[6-fluoro-5-(5-methyl-1H-pyrrolo[2,3-b]pyridin-3-ylmethyl)-pyridin-2-yl]-amine], the IC50 is below 0.1 µM in assay [1] and below 0.01 µM in assay [2].
In the same order, the values of `CCc1ccc(Nc2ccc(C(=O)c3c[nH]c4ncc(C)cc34)c(F)n2)cn1` [Compound P-3049, [6-(6-Ethyl-pyridin-3-ylamino)-2-fluoro-pyridin-3-yl]-(5-methyl-1H-pyrrolo[2,3-b]pyridin-3-yl)-methanone] are below 0.1 µM and below 0.01 µM.
In the same order, the values of `Cc1cnc2[nH]cc(Cc3ccc(Nc4ccc(C5CC5)nc4)nc3F)c2c1` [Compound P-3050, (6-Cyclopropyl-pyridin-3-yl)-[6-fluoro-5-(5-methyl-1H-pyrrolo[2,3-b]pyridin-3-ylmethyl)-pyridin-2-yl]-amine] are below 0.1 µM and below 0.1 µM.
In the same order, the values of `Cc1cnc2[nH]cc(C(=O)c3ccc(Nc4ccc(C5CC5)nc4)nc3F)c2c1` [Compound P-3051, [6-(6-Cyclopropyl-pyridin-3-ylamino)-2-fluoro-pyridin-3-yl]-(5-methyl-1H-pyrrolo[2,3-b]pyridin-3-yl)-methanone] are below 0.1 µM and below 0.1 µM.
Consider `O=C(c1ccc(Nc2ccc(C3CC3)nc2)nc1F)c1c[nH]c2ncccc12` [Compound P-3052, [6-(6-Cyclopropyl-pyridin-3-ylamino)-2-fluoro-pyridin-3-yl]-(1H-pyrrolo[2,3-b]pyridin-3-yl)-methanone], for which the IC50 in assay [1] and in assay [2] was below 0.1 µM each time.
Consider `Fc1nc(Nc2ccc(C3CC3)nc2)ccc1Cc1c[nH]c2ncccc12` [Compound P-3053, (6-Cyclopropyl-pyridin-3-yl)-[6-fluoro-5-(1H-pyrrolo[2,3-b]pyridin-3-ylmethyl)-pyridin-2-yl]-amine], for which the IC50 was below 0.1 µM in assay [1] and below 0.01 µM in assay [2].
As for `CCn1cc(Nc2ccc(C(=O)c3c[nH]c4ncnc(C5CC5)c34)c(F)n2)cn1` [Compound P-4037, (4-Cyclopropyl-7H-pyrrolo[2,3-d]pyrimidin-5-yl)-[6-(1-ethyl-1H-pyrazol-4-ylamino)-2-fluoro-pyridin-3-yl]-methanone], the IC50 in assay [1] was below 1 µM; in assay [2], below 0.1 µM.
